Values quoted from earlier work in patent US9339460B2, “Self-emulsifiable liquid florfenicol composition intended to be incorporated into the drinking water of livestock” (VIRBAC SA, priority 2007, dated 2016).

Settings: in water

"miscibility" of Florfenicol: 12 g/L
SMILES: CS(=O)(=O)c1ccc([C@@H](O)[C@@H](CF)NC(=O)C(Cl)Cl)cc1 [Florfenicol]
